Reference: publication PMC5054364, “Neuroprotective pentapeptide CN-105 improves functional and histological outcomes in a murine model of intracerebral hemorrhage” (Scientific Reports, 2016)

Legend:
[1] = tested on: murine model of collagenase-induced ICH; test: Brain water content (cerebral edema) after ICH; type: in vivo, C57BL/6J mice; settings: 24 hours after injury, 0.05 mg/kg i.v. at 2, 6 and 24 hours post ICH, mean ± standard error, n = 6–8/group
Description: Experiment 3. Brain water content. Brain water content was assessed at 24 hours post ICH in 8 saline- and 8 CN-105-treated animals. CN-105 or saline was given by tail vein injection at 2, 6, and 24 hours post ICH. Two animals randomized to CN-105 died at 4 and 6 hours post-ICH, and were excluded from further analyses.
(§1) Intrastriatal collagenase injection was used to induce ICH in mice, as previously described. Briefly, the trachea was intubated after anesthesia induction with 4.6% isoflurane, and the lungs were mechanically ventilated with 1.5% isoflurane in a mixture of 30%/70% O2/N2. Rectal temperature was maintained at 37 °C ± 0.2 °C by circulating warm water in an underbody waterbed. The animal’s head was secured in a stereotactic frame, and a midline scalp incision was made. After exposing the skull, a burr hole was created 2.2 mm left lateral to bregma, and a 0.5 μL syringe needle (Hamilton, Reno, NV, USA) was advanced to a depth of 3 mm from cortex. Type IV-S Clostridial collagenase (Sigma, St. Louis, MO, USA) was injected over 2 minutes (0.075 U in 0.4 μL normal saline). […]
Mice were anesthetized and euthanized at 24 hours after ICH to coincide with the point of maximum inflammatory changes. […] Cerebral edema was expressed as water content, calculated as a percentage of wet weight ([wet weight - dry weight]/[wet weight] x 100).

[2] = tested on: murine model of collagenase-induced ICH; test: Hemorrhage volume by SWI MRI after collagenase-induced ICH; type: in vivo, C57BL/6J mice; settings: mean ± standard error, n = 3–4/group
Description: (§2) Experiment 2. Hematoma volume. Hemorrhage volume was assessed by magnetic resonance imaging (MRI) at 2 hours post ICH (before treatment) and 24 hours post ICH. 3 saline- and 3 CN-105-treated animals were perfused at 24 hours post ICH, and brain hematoxylin and eosin (H&E) staining was performed. CN-105 or saline was given by tail vein injection at 2, 6, and 24 hours post-ICH.
as §1, with “saline). After closing the incision, animals were allowed to recover spontaneous ventilation, and were then extubated and given free access to food and water.” for “saline).”

[3] = tested on: murine model of collagenase-induced ICH; test: F4/80 microglial staining and stereology after ICH; type: in vivo, C57BL/6J mice; settings: 5 days after ICH; 0.05 mg/kg i.v. at 4, 8 and 24 hours post ICH; vehicle 14593 ± 116, p = 0.003; mean ± standard error, n = 3–4
Description: Experiment 5. Microglial staining. A separate cohort of animals was randomized to vehicle (n = 4) or CN-105 (n = 4) groups and received tail vein injections at 4, 8, and 24 hours post ICH. Immunohistochemical microglial staining was performed and gliosis was quantified by stereology. One mice in vehicle group died within 1 day after injury and was excluded.
as §1
(§3) After anesthetic induction, mice underwent transcardial perfusion with 30 mL normal saline. […] Cells were counted using a Nikon 218912 light microscope interfaced with the StereoInvestigator software package (MicroBrightField, Williston, VT, USA). […]

[4] = tested on: murine model of collagenase-induced ICH; test: Rotarod testing (vestibulomotor function) after ICH; type: in vivo, C57BL/6J mice; settings: Days 1–5 after ICH; 0.05 mg/kg i.v. at 4, 8 and 24 hours post ICH; p = 0.0435; n = 14/group
Description: (§4) Experiment 4. Neurobehavioral assessment. Animals were randomized to vehicle (n = 14) or CN-105 (n = 14) groups, and evaluated for neurobehavioral function (neuroscore), vestibulomotor function (rotarod), and spatial learning (MWM). Mice received tail vein injections of vehicle or CN105 at 4, 8, and 24 hours post ICH.
as §1
An automated rotarod (Ugo Basile, Comerio, Italy) was used to assess the effects of therapeutic intervention on vestibulomotor function. […] The average time lapse to fall from the rotating cylinder in the second set of trials was recorded as baseline latency. […] Average latency to fall from the rod was recorded.

[5] = tested on: murine model of collagenase-induced ICH; test: Morris water maze testing after ICH; type: in vivo, C57BL/6J mice; settings: Days 29–32 after ICH, 0.05 mg/kg i.v. at 4, 8 and 24 hours post ICH, n = 14/group
Description: as §4, §1
The MWM[20] was used to assess the effects of therapeutic intervention on spatial learning and memory. […] Latency to find the platform was recorded by a computerized video tracking system (KeilSoft LLC, Chapel Hill, NC).

[6] = tested on: murine model of collagenase-induced ICH; test: Histological hemorrhage volume (H&E staining) after ICH; type: in vivo, C57BL/6J mice; settings: 0.05 mg/kg i.v. tail vein at 2, 6 and 24 hours post-ICH; saline 7.97 ± 0.97, p = 0.66; mean ± standard error, n = 3/group
Description: as §2
Intrastriatal collagenase injection was used to induce ICH in mice, as previously described. Briefly, the trachea was intubated after anesthesia induction with 4.6% isoflurane, and the lungs were mechanically ventilated with 1.5% isoflurane in a mixture of 30%/70% O2/N2. Rectal temperature was maintained at 37 °C ± 0.2 °C by circulating warm water in an underbody waterbed. The animal’s head was secured in a stereotactic frame, and a midline scalp incision was made. […]
Histological hematoma volume was measured at 24 hours after injury to coincide with maximum hematoma expansion. […] Lesion volume was measured by digitally sampling stained sections with an image analyzer (M2 Turnkey System, Imaging Research, Inc., St. Catharines, Ontario, Canada). Lesion volumes (mm^3) were computed as running sums of lesion area multiplied by the known interval between sections (400 μm) over the extent of the lesion, and expressed as an orthogonal projection.

[7] = tested on: murine model of collagenase-induced ICH; test: Neuroseverity score after ICH; type: in vivo, C57BL/6J mice; settings: 0.05 mg/kg i.v. at 4, 8 and 24 hours post ICH; p = 0.12; n = 14/group
Description: as §4
(§5) Intrastriatal collagenase injection was used to induce ICH in mice, as previously described. Briefly, the trachea was intubated after anesthesia induction with 4.6% isoflurane, and the lungs were mechanically ventilated with 1.5% isoflurane in a mixture of 30%/70% O2/N2. Rectal temperature was maintained at 37 °C ± 0.2 °C by circulating warm water in an underbody waterbed. The animal’s head was secured in a stereotactic frame, and a midline scalp incision was made. After exposing the skull, a burr hole was created 2.2 mm left lateral to bregma, and a 0.5 μL syringe needle (Hamilton, Reno, NV, USA) was advanced to a depth of 3 mm from cortex. Type IV-S Clostridial collagenase (Sigma, St. Louis, MO, USA) was injected over 2 minutes (0.075 U in 0.4 μL normal saline). After closing the incision, animals were allowed to recover spontaneous ventilation, and were then extubated and given free access to food and water.
CN-105 (Ac-VSRRR-amide) was synthesized by Polypeptide Inc. (San Diego, CA) to a purity of >99%, and was dissolved in normal saline. […]

[8] = CN-105 pharmacokinetics in brain and plasma (LC/MS); type: in vivo; settings: mice
Text: One rationale for creating the smaller apoE mimetic peptides was to enhance CNS penetration and possibility of noninvasive mechanisms of delivery (for example, intranasal). To define pharmacokinetic parameters, we performed initial non-GLP studies in mice using stable radioisotope labeled CN-105 peptide (MW of heavy CN-105 was 362.7 vs. 357.7). […] The total CNS exposure was 44%; of note, this is approximately 5 fold higher than prior apoE based mimetic peptides.
Experiment 1. CN-105 pharmacokinetics in Brain and Plasma. The concentration of CN-105 was determined at 1, 3, 10, 15, 30 and 60 minutes (n = 5/time point) post injection using LC/MS.
A protocol was developed in collaboration with the Duke University Core Proteomics and Metabolomics Shared Resource using LC/MS on a high-resolution accurate-mass instrument. […] After extraction, samples were dried down in Speed Vac and reconstituted in 25 uL of 1% ACN/0.1% TFA/0.02% HFBA and analyzed using a nanoAcquity LC (Waters) coupled to a Synapt G2 Q-ToF (Waters). Quantitative data was extracted as selected ion chromatograms for both the native ((M + 2H)^2+at m/z 357.7 and heavy-labeled form CN-105 at m/z 362.7). Quantitation was accomplished by using a ratio of the peak area of the analyte and internal standard which was fit to a 7-point calibration curve (plasma R^2 = 0.997 and brain R^2 = 0.999).

[9] = tested on: murine model of collagenase-induced ICH; test: NeuN neuronal survival, stereology after ICH; type: in vivo, C57BL/6J mice; settings: ipsilateral, 33 days post ICH, 0.05 mg/kg i.v. at 4, 8 and 24 hours, n = 7/group
Text: Experiment 6. Neuronal survival. The hippocampus has been associated with spatial learning and memory. To determine whether histological outcome correlates with functional outcomes, neuronal density was quantified in the hippocampus and striatum of the mice (n = 7/group) in experiment 4 by stereology at 33 days post-ICH following MWM testing.
as §5
CN-105 (Ac-VSRRR-amide) was synthesized by Polypeptide Inc. (San Diego, CA) to a purity of >99%, and was dissolved in normal saline. Using a murine model of traumatic brain injury, 0.05 mg/kg CN-105 was previously found to be the lowest dose that improved functional performance after injury (data not shown). Here, therefore, 100 μL 0.05 mg/kg CN-105 in saline, or vehicle, was administered via intravenous tail vein injection 3 times at pre-specified timepoints after ICH. Animals were gently restrained by a rodent restrainer (Harvard Apparatus, Holliston, MA) during each administration.
as §3

AUC0–60 in brain ([8]; brain homogenate (urea in buffer), 0-60 minutes post injection, n = 5/time point, LC/MS): 548 fmol·min/µL | total CNS exposure ([8]; brain versus plasma AUC0–60): 44% | AUC0–60 in plasma ([8]; plasma, 0-60 minutes post injection, n = 5/time point, LC/MS): 1253 fmol·min/µL | half-life ([8]; mouse, non-GLP study, stable isotope labeled CN-105, plasma sampled 1-60 minutes post injection, n = 5/time point, LC/MS, read-out: terminal plasma half-life): 27 min
Substance: Ac-VSRRR-NH2 [CN-105, Ac-VSRRR-amide]
brain water content, contralateral hemisphere ([1]; p = 0.64): 78.70 ± 0.41% | brain water content, injured hemisphere ([1]; vehicle 80.67 ± 0.26, p = 0.029): 79.57 ± 0.38% | hemorrhage volume by SWI MRI at 24 hours post ICH ([2]; 0.05 mg/kg i.v. tail vein at 2, 6 and 24 hours post-ICH, saline 10.77 ± 1.70, p = 0.82): 10.14 ± 1.92 mm^3 | hematoma volume by MRI at 2 hours after ICH ([2]; 2 hours after ICH induction, prior to treatment (baseline of the CN-105 group)): 9.93 ± 1.88 mm^3 | number of F4/80-positive cells in the ipsilateral hippocampi [3]: 9327 ± 838 cells/mm^3 | rotarod motor functional recovery versus vehicle [4]: significantly improved motor functional recovery | Morris water maze escape latencies versus vehicle ([5]; Day x Group p = 0.02): significantly lower latencies | Morris water maze learning curves (learning slopes) versus vehicle ([5]; p = 0.01): significantly steeper learning curves | hemorrhage volume by H&E staining at 24 hours after ICH [6]: 8.43 ± 0.15 mm^3 | neuroseverity scores, Day 1 to Day 5 after ICH versus vehicle [7]: mild but not significant improvement | NeuN-positive cell numbers, striatum ([9]; vehicle 25142 ± 5777, p = 0.27): 21816 ± 5073 cells/mm^3 | NeuN-positive cell numbers, dentate gyrus polymorphic region ([9]; vehicle 34919 ± 9378, p = 0.16): 42109 ± 8439 cells/mm^3 | NeuN-positive cell numbers, CA3 region ([9]; vehicle 188719 ± 4780, p = 0.009): 225773 ± 10841 cells/mm^3
